Converted amounts (≈) assume the structure as drawn. “And” between values parts separate entries of the source, which are not always exact repeats. Equal values may be shown once. One block for each molecule: values may come before it.
What was measured:
Experiment in all cases: ≥ marks a high value that may be exact or a test limit, other limits are often not marked, values filed in µg/mL are converted to µM
[1] = tested on: Pseudomonas aeruginosa PAO1
[2] = tested on: Bacillus subtilis ATCC 6051
[3] = tested on: Bacillus licheniformis ATCC 14580
[4] = tested on: Staphylococcus aureus ATCC 29213
[5] = tested on: Bacillus amyloliquefaciens ATCC 23842
[6] = tested on: Bacillus cereus ATCC 14579
[7] = tested on: Proteus mirabilis ATCC 35659
[8] = tested on: Enterococcus faecium 5F-10
[9] = tested on: Salmonella enterica ATCC H9812
[10] = tested on: Escherichia coli ATCC 25922
[11] = tested on: Enterococcus faecalis 1F-1
[12] = tested on: Staphylococcus aureus ATCC 25923
[13] = tested on: Candida albicans ATCC 90028
[14] = tested on: Staphylococcus epidermidis ATCC 12228
[15] = tested on: Trichophyton rubrum ATCC 28189
[16] = tested on: Bacillus subtilis ATCC 6633
[17] = tested on: Staphylococcus aureus ATCC 9144
[18] = tested on: Escherichia coli ATCC 10536
[19] = tested on: Bacillus megaterium NRRL B-4272
[20] = tested on: Klebsiella pneumoniae ATCC 700603
[21] = tested on: Staphylococcus aureus ATCC 43300
Escherichia coli K-12 = tested on: Escherichia coli K-12
[22] = tested on: Cryptococcus neoformans var. grubii H99
[23] = tested on: Staphylococcus aureus JE2
[24] = tested on: Acinetobacter baumannii ATCC 19606
[25] = tested on: Pseudomonas aeruginosa ATCC 27853
Staphylococcus aureus = tested on: Staphylococcus aureus
[26] = tested on: Escherichia coli DH5alpha
[27] = tested on: Pseudomonas aeruginosa NBRC 13275
[28] = tested on: Proteus vulgaris NBRC 3045
[29] = tested on: Klebsiella pneumoniae NBRC 3512
[30] = tested on: Pseudomonas aeruginosa ATCC BAA-2111
[31] = tested on: Escherichia coli NBRC 3972
[32] = tested on: Staphylococcus epidermidis
[33] = tested on: Salmonella enterica subsp. enterica NBRC 100797
[34] = tested on: Staphylococcus aureus NBRC 13276
[35] = tested on: Candida parapsilosis ATCC 22019
[36] = tested on: Trichophyton mentagrophytes
Sporothrix schenckii = tested on: Sporothrix schenckii
[37] = tested on: Pseudomonas aeruginosa ATCC BAA-427
Bacillus cereus = tested on: Bacillus cereus
[38] = tested on: Escherichia coli ATCC 9637
[39] = tested on: Klebsiella pneumoniae ATCC 27736
Aspergillus fumigatus = tested on: Aspergillus fumigatus
[40] = tested on: Bacillus subtilis MTCC 14416
Escherichia coli MG1655 = tested on: Escherichia coli MG1655
[41] = tested on: Staphylococcus aureus MTCC 9542
[42] = tested on: Enterococcus faecalis ATCC 29212
Vibrio cholerae = tested on: Vibrio cholerae

MIC [20]: > 19.1 µM
MIC [21]: 9.57 µM (≈ 16 µg/mL)
MIC (Escherichia coli K-12): 19.1 µM (≈ 32 µg/mL)
MIC [22]: 9.57 µM (≈ 16 µg/mL)
MIC [23]: 9.57 µM (≈ 16 µg/mL)
MIC [10]: 19.1 µM (≈ 32 µg/mL)
MIC [13]: 9.57 µM (≈ 16 µg/mL)
MIC [24]: 19.1 µM (≈ 32 µg/mL)
MIC [25]: > 19.1 µM
SMILES: CC[C@H](C)[C@H](NC(=O)[C@@H](NC(=O)[C@H](CO)NC(=O)[C@H](C)NC(=O)[C@@H](NC(=O)[C@H](CCCN=C(N)N)NC(=O)[C@H](CCCN=C(N)N)NC(=O)[C@@H](NC(=O)[C@@H](NC(=O)[C@H](CC(=O)O)NC(=O)[C@H](Cc1ccccc1)NC(=O)[C@H](CC(C)C)NC(=O)CN)C(C)C)[C@@H](C)CC)C(C)C)C(C)C)C(=O)NCC(=O)NCC(=O)N[C@@H](CC(C)C)C(=O)O [GLFDVIRRVASVIGGL]

MIC (Staphylococcus aureus): 12.5 µM (≈ 27.9 µg/mL)
MIC [26]: 3.12 µM and 3.1 µM
MIC [27]: 1.56 µM and 0.716 µM
MIC [28]: ≥ 100 µM
MIC [29]: 0.716 µM (≈ 1.6 µg/mL)
MIC [30]: 1.39 µM (≈ 3.1 µg/mL)
MIC [31]: 3.12 µM and 3.1 µM
MIC [32]: 1.56 µM (≈ 3.48 µg/mL)
MIC [33]: 1.6 µM (≈ 3.57 µg/mL)
MIC [34]: 5.59 µM (≈ 12.5 µg/mL)
SMILES: CC(C)C[C@H](NC(=O)[C@H](CCCCN)NC(=O)CNC(=O)[C@H](C)NC(=O)[C@H](CCCCN)NC(=O)[C@H](CCCCN)NC(=O)[C@H](CC(C)C)NC(=O)[C@H](CC(C)C)NC(=O)[C@H](CCCCN)NC(=O)CNC(=O)[C@H](C)NC(=O)[C@H](CCCCN)NC(=O)[C@H](CCCCN)NC(=O)[C@H](CC(C)C)NC(=O)[C@H](CC(C)C)NC(=O)[C@@H](N)CCCCN)C(=O)N[C@@H](CC(C)C)C(=O)N[C@@H](CCCCN)C(=O)N[C@@H](CCCCN)C(=O)N[C@@H](C)C(=O)NCC(N)=O [KLLKKAGKLLKKAGKLLKKAG]

Second part, the molecule before the results:

SMILES: CC(C)C[C@H](NC(=O)[C@H](CC(C)C)NC(=O)[C@@H](N)CCC(=O)O)C(=O)N[C@@H](CO)C(=O)N[C@@H](CCCN=C(N)N)C(=O)N[C@H](C(=O)O)C(C)C [ELLSRV]
MIC [1]: > 179 µM
MIC [2]: ≥ 179 µM
MIC [3]: ≥ 179 µM
MIC [4]: > 179 µM
MIC [5]: ≥ 179 µM
MIC [6]: ≥ 179 µM
MIC [7]: ≥ 179 µM
MIC [8]: ≥ 179 µM
MIC [9]: ≥ 89.4 µM
MIC [10]: 89.4 µM (≈ 64 µg/mL)
MIC [11]: ≥ 179 µM

SMILES: CC[C@H](C)[C@H](NC(=O)[C@H](Cc1c[nH]c2ccccc12)NC(=O)[C@H](CCCCN)NC(=O)[C@H](Cc1cnc[nH]1)NC(=O)[C@H](Cc1ccccc1)NC(=O)[C@H](CCC(=O)O)NC(=O)[C@H](CCCN=C(N)N)NC(=O)[C@H](CC(C)C)NC(=O)[C@@H](N)Cc1ccccc1)C(=O)N[C@@H](CCC(=O)O)C(=O)N[C@@H](CCCN=C(N)N)C(=O)N[C@H](C(=O)N[C@H](C(=O)NCC(=O)N[C@@H](Cc1c[nH]c2ccccc12)C(=O)N[C@@H](CC(C)C)C(=O)NCC(=O)N[C@@H](CCCCN)C(=O)N[C@H](C(=O)N[C@@H](Cc1ccccc1)C(N)=O)C(C)C)C(C)C)C(C)C [FLREFHKWIERVVGWLGKVF]
MIC [12]: 32 µM (≈ 81.5 µg/mL)
MIC [13]: ≥ 32 µM
MIC [14]: 21.3 µM (≈ 54.3 µg/mL)
MIC [15]: ≥ 256 µM

SMILES: CC[C@H](C)[C@H](NC(=O)[C@H](Cc1ccccc1)NC(=O)[C@H](CCCCN)NC(=O)[C@H](CCCCN)NC(=O)[C@H](Cc1ccccc1)NC(=O)[C@H](CO)NC(=O)[C@H](Cc1cnc[nH]1)NC(=O)[C@H](CC(C)C)NC(=O)[C@H](C)NC(=O)[C@H](CCCCN)NC(=O)CNC(=O)CNC(=O)CN)C(=O)N[C@@H](CCCCN)C(=O)N[C@@H](C)C(=O)N[C@@H](Cc1ccccc1)C(=O)N[C@H](C(=O)NCC(=O)N[C@@H](CCC(=O)O)C(=O)N[C@H](C(=O)N[C@@H](CCSC)C(=O)N[C@@H](CC(N)=O)C(=O)N[C@@H](CO)C(N)=O)[C@@H](C)CC)C(C)C [GGGKALHSFKKFIKAFVGEIMNS]
MIC [16]: 10 µM (≈ 24.7 µg/mL)
MIC [17]: ≥ 40 µM
MIC [18]: 5 µM (≈ 12.3 µg/mL)
MIC [19]: 12 µM (≈ 29.6 µg/mL)

SMILES: CC(C)C[C@H](NC(=O)[C@H](CC(C)C)NC(=O)[C@H](CCCN=C(N)N)NC(=O)[C@H](CCCN=C(N)N)NC(=O)[C@H](CC(C)C)NC(=O)[C@H](Cc1c[nH]c2ccccc12)NC(=O)[C@H](CCCN=C(N)N)NC(=O)[C@H](CC(C)C)NC(=O)[C@H](CC(C)C)NC(=O)[C@H](CCCN=C(N)N)NC(=O)[C@H](CCCN=C(N)N)NC(=O)[C@@H](N)CC(C)C)C(=O)N[C@@H](CCCN=C(N)N)C(=O)N[C@@H](CCCN=C(N)N)C(=O)O [LRRLLRWLRRLLRR]
MIC [35]: 3.16 µM (≈ 6.25 µg/mL)
MIC [12]: 0.789 µM (≈ 1.56 µg/mL)
MIC [36]: 3.16 µM (≈ 6.25 µg/mL)
MIC (Sporothrix schenckii): 1.59 µM (≈ 3.15 µg/mL)
MIC [37]: 12.6 µM (≈ 25 µg/mL)
MIC (Bacillus cereus): 1.59 µM (≈ 3.15 µg/mL)
MIC [38]: 12.6 µM (≈ 25 µg/mL)
MIC [39]: 1.59 µM (≈ 3.15 µg/mL)
MIC (Aspergillus fumigatus): 3.16 µM (≈ 6.25 µg/mL)

SMILES: CC[C@H](C)[C@@H]1NC(=O)[C@H](CCCCN)NC(=O)[C@@H](NC(=O)[C@H](CC(C)C)NC(=O)[C@@H](NC(=O)[C@H](CCC(N)=O)NC(=O)[C@@H]2CCCN2C(=O)[C@H](CC(C)C)NC(=O)[C@H](Cc2ccccc2)NC(=O)[C@H](CC(N)=O)NC(=O)[C@H](C)NC(=O)[C@H](C)NC(=O)[C@H](CC(C)C)NC(=O)CNC(=O)[C@H](C)NC(=O)[C@@H](NC(=O)[C@@H](N)CCCN=C(N)N)[C@@H](C)CC)[C@@H](C)CC)CSSC[C@@H](C(N)=O)NC(=O)[C@H](CCCCN)NC(=O)[C@H](CCCN=C(N)N)NC(=O)[C@H](C)NC1=O [RIAGLAANFLPQILCKIARKC]
MIC [40]: 21.7 µM (≈ 49.9 µg/mL)
MIC [21]: 10.9 µM (≈ 25 µg/mL)
MIC (Escherichia coli MG1655): 10.9 µM (≈ 25 µg/mL)
MIC [41]: 10.9 µM (≈ 25 µg/mL)
MIC [42]: 21.7 µM (≈ 49.9 µg/mL)
MIC (Vibrio cholerae): 5.44 µM (≈ 12.5 µg/mL)
MIC [25]: > 43.5 µM

From DBAASP
